According to ChEMBL document CHEMBL1150499, “Excitatory amino acids: 6-phosphonomethyltetrahydro-4-pyrimidinecarboxylic acids and their acyclic analogues are competitive N-methyl-D-aspartic acid receptor antagonists” (Bioorg Med Chem Lett, 1992):

Target: Glutamate NMDA receptor
Assay: Compound was evaluated for its ability to displace […] binding for NMDA receptor
Assay type: protein-complex assay

In order of rising IC50:
1. O=C(O)[C@@H]1C[C@H](CP(=O)(O)O)CCN1 [SELFOTEL]  24 nM
2. O=C(O)C1CN(CCCP(=O)(O)O)CCN1 (stereo not drawn)  28 nM
3. NC(CC(O)CP(=O)(O)O)C(=O)O (stereo not drawn)  130 nM
4. NC(CC(CP(=O)(O)O)S(=O)O)C(=O)O (stereo not drawn)  240 nM
5. O=C(O)C1CC(CCCP(=O)(O)O)N=CN1 (stereo not drawn)  420 nM
6. NC(CC(N)C(=O)O)CP(=O)(O)O (stereo not drawn)  1440 nM
7. NC(CCCP(=O)(O)O)CC(N)C(=O)O (stereo not drawn)  2270 nM
8. O=C(O)C1CC(CP(=O)(O)O)N=CN1 (stereo not drawn)  5950 nM
